Laboratory results reported in US20240124434A1, “ATF6 INHIBITORS AND USES THEREOF” (Altos Labs, Inc., priority 2018, published 2024).
Read-outs that look alike come from different tables or passages of the source.

Tested on: ATF6
Test: ERSE ATF6-luciferase reporter assay (thapsigargin-induced ER stress)
Assay type: cell-based, human
Conditions: Homo sapiens, U2OS, thapsigargin-induced ER stress, U2-OS ATF6 luc reporter cells; for inhibition at 1 µM: 8 h, 8 hr
[1] = read-out: Inh. ATF6-Luc @ 1 μM [%], 1 μM test compound
[2] = read-out: IC50 ATF6-Luc reporter [μM], dose-response 30 μM to 1 nM
[3] = 1 μM test compound, read-out: Inh. ATF6-Luc @ 1 μM [%]
[4] = dose-response 30 μM to 1 nM, read-out: IC50 ATF6-Luc reporter

| Structure (SMILES) | IC50 [2] [µM] | IC50 [4] [µM] | inhibition at 1 µM [1] [%] | inhibition at 1 µM [3] [%] |
| --- | --- | --- | --- | --- |
| C[C@@H](c1ccc(C(F)(F)F)cc1C(F)(F)F)n1cc(NC(=O)c2cn(-c3ccccn3)nn2)cn1 [Compound 122, (S)—N-(1-(1-(2,4-bis(trifluoromethyl)phenyl)ethyl)-1H-pyrazol-4-yl)-1-(pyridin-2-yl)-1H-1,2,3-triazole-4-carboxamide] | > 10 | – | < 25 | – |
| C[C@H](c1ccc(C(F)(F)F)cc1C(F)(F)F)n1cc(NC(=O)c2coc(-c3ccccn3)n2)cn1 [Compound 125, (R)—N-(1-(1-(2,4-bis(trifluoromethyl)phenyl)ethyl)-1H-pyrazol-4-yl)-2-(pyridin-2-yl)oxazole-4-carboxamide] | – | > 10 | – | < 25 |
| C[C@H](c1ccc(C(F)(F)F)cc1C(F)(F)F)n1cc(NC(=O)c2cnc(-c3ccccn3)o2)cn1 [Compound 127, (R)N-(1-(1-(2,4-bis(trifluoromethyl)phenyl)ethyl)-1H-pyrazol-4-yl)-2-(pyridin-2-yl)oxazole-5-carboxamide] | – | > 10 | – | < 25 |
| O=C(Nc1cnn(Cc2ccc(C(F)(F)F)cc2C(F)(F)F)c1)c1cnc(Nc2ccccn2)s1 [Compound 130, N-(1-(2,4-bis(trifluoromethyl)benzyl)-1H-pyrazol-4-yl)-2-(pyridin-2-ylamino)thiazole-5-carboxamide] | – | > 10 | – | < 25 |
| C[C@@H](c1ccc(C(F)(F)F)cc1C(F)(F)F)n1cc(NC(=O)c2cc(-c3cnccn3)on2)cn1 [Compound 132, (S)—N-(1-(1-(2,4-bis(trifluoromethyl)phenyl)ethyl)-1H-pyrazol-4-yl)-5-(pyrazin-2-yl)isoazole-3-carboxamide] | > 10 | – | < 25 | – |
| C[C@H](c1ccc(C(F)(F)F)cc1C(F)(F)F)n1cc(NC(=O)c2nnc(-c3ccccn3)o2)cn1 [Compound 133, (R)—N-(1-(1-(2,4-bis(trifluoromethyl)phenyl)ethyl)-1H-pyrazol-4-yl)-5-(pyridin-2-yl)-1,3,4-oxadiazole-2-carboxamide] | – | > 10 | – | < 25 |
| C[C@@H](c1ccc(C(F)(F)F)cc1C(F)(F)F)n1cc(NC(=O)c2nnc(-c3ccccn3)o2)cn1 [Compound 134] | – | > 10 | – | < 25 |

Second part, led by results:

| IC50 [2] [µM] | IC50 [4] [µM] | Structure (SMILES) | inhibition at 1 µM [1] [%] | inhibition at 1 µM [3] [%] |
| --- | --- | --- | --- | --- |
| – | > 10 | Cc1c(C(=O)Nc2cnn(Cc3ccc(C(F)(F)F)cc3C(F)(F)F)c2)noc1-c1ccccn1 [Compound 135, N-(1-(2,4-bis(trifluoromethyl)benzyl)-1H-pyrazol-4-yl)-4-methyl-5-(pyridin-2-yl)isoxazole-3-carboxamide] | – | 25 to 50 |
| – | > 10 | CC(c1ccc(F)cc1C(F)(F)F)n1cc(NC(=O)c2nnc(-c3ccccn3)s2)cn1 (centres unmarked) [Compound 137, N-(1-(1-(4-fluoro-2-(trifluoromethyl)phenyl)ethyl)-1H-pyrazol-4-yl)-5-(pyridin-2-yl)-1,3,4-thiadiazole-2-carboxamide] | – | < 25 |
| – | > 10 | C[C@@H](c1ccc(C(F)(F)F)cc1C(F)(F)F)n1cc(NC(=O)c2ccccn2)cn1 [Compound 139, (S)—N-(1-(1-(2,4-bis(trifluoromethyl)phenyl)ethyl)-1H-pyrazol-4-yl)picolinamide] | – | < 25 |
| – | > 10 | C[C@H](c1ccc(C(F)(F)F)cc1C(F)(F)F)n1cc(NC(=O)c2ccccn2)cn1 [Compound 140, (R)—N-(1-(1-(2,4-bis(trifluoromethyl)phenyl)ethyl)-1H-pyrazol-4-yl)picolinamide] | – | < 25 |
| – | > 10 | C[C@@H](c1ccc(C(F)(F)F)cc1C(F)(F)F)n1cc(NC(=O)c2cnccn2)cn1 [Compound 141, (S)—N-(1-(1-(2,4-bis(trifluoromethyl)phenyl)ethyl)-1H-pyrazol-4-yl)pyrazine-2-carboxamide] | – | < 25 |
| – | > 10 | C[C@H](c1ccc(C(F)(F)F)cc1C(F)(F)F)n1cc(NC(=O)c2cnccn2)cn1 [Compound 142, (R)—N-(1-(1-(2,4-bis(trifluoromethyl)phenyl)ethyl)-1H-pyrazol-4-yl)pyrazine-2-carboxamide] | – | < 25 |
